Bridges are numbered along the chain shown (N, C = ends). Where no end group is shown, it is not given here.
Columns and labels:
[1] = Measurement of body weight in insulin-using Type II diabetes patients, 4-week study; type: in vivo, human; conditions: 4 weeks, change from baseline
Procedure: Study participants were males and females 25 to 78 years of age with a history of Type II diabetes mellitus requiring treatment with insulin for at least 6 months prior to the pre-screening visit. […] The study employed methods described in Thompson et al., Diabetes 46:632-636 (1997). Following a placebo lead-in period, patients were randomized to receive placebo or one of three dose regimens of ^25,28,29Pro-h-amylin (pramlintide) for 4 weeks: 30 μg QID (before breakfast, lunch, dinner and evening snack), 60 μg TID (before breakfast, lunch and dinner) or 60 μg QID (before breakfast, lunch, dinner and evening snack). Throughout the study drug period, patients self-administered four injections of study drug daily, within 15 minutes of each meal and the evening snack. During the double-blind period, patients randomized to pramlintide 60 μg TID administered placebo before the evening snack. Both pramlintide and placebo were administered as separate injections into the subcutaneous tissue of the anterior abdominal wall; the specific site was alternated after each injection. Patients were instructed to remain on their usual diet, insulin and exercise regimens throughout the study, unless otherwise instructed by the investigator, and to abstain from alcoholic beverages prior to all clinic visits.

[2] = Tritiated glucose gastric emptying assay; type: in vivo, rat
Description: In a phenol red method, which is described in Example 7 below, conscious rats receive by gavage an acoloric gel containing methyl cellulose and a phenol red indicator. Twenty minutes after gavage, animals are anesthetized using halothane, the stomach exposed and clamped at the pyloric and lower esophageal sphincters, removed and opened into an alkaline solution. Stomach content may be derived from the intensity of the phenol red in the alkaline solution, measured by absorbance at a wavelength of 560 nm. In a tritiated glucose method, which is described in Example 8 below, conscious rats are gavaged with tritiated glucose in water. The rats are gently restrained by the tail, the tip of which is anesthetized using lidocaine. Tritium in the plasma separated from tail blood is collected at various timepoints and detected in a beta counter. Test compounds are normally administered about one minute before gavage.
Conscious, non-fasted, Harlan Sprague Dawley rats were restrained by the tail, the tip of which was anesthetized using 2% lidocaine. Tritium in plasma separated from tail blood collected 0, 15, 30, 60, 90 and 120 minutes after gavage was detected in a beta counter.

[3] = target: amylin receptors in membranes of rat basal forebrain (nucleus accumbens and surrounding regions) (rat); test: competition with 125I-rat amylin on rat basal forebrain membranes

In the case of CC[C@H](C)[C@H](NC(=O)[C@@H]1CCCN1C(=O)CNC(=O)[C@H](Cc1ccccc1)NC(=O)[C@H](CC(N)=O)NC(=O)[C@H](CC(N)=O)NC(=O)[C@H](CO)NC(=O)[C@H](CO)NC(=O)[C@H](Cc1c[nH]cn1)NC(=O)[C@@H](NC(=O)[C@H](CC(C)C)NC(=O)[C@H](Cc1ccccc1)NC(=O)[C@H](CC(N)=O)NC(=O)[C@H](C)NC(=O)[C@H](CC(C)C)NC(=O)[C@H](CCCNC(=N)N)NC(=O)[C@H](CCC(N)=O)NC(=O)[C@@H](NC(=O)[C@H](C)NC(=O)[C@@H]1CSSC[C@H](NC(=O)[C@@H](N)CCCCN)C(=O)N[C@@H](CC(N)=O)C(=O)N[C@@H]([C@@H](C)O)C(=O)N[C@@H](C)C(=O)N[C@@H]([C@@H](C)O)C(=O)N1)[C@@H](C)O)C(C)C)C(=O)N[C@@H](CC(C)C)C(=O)N1CCC[C@H]1C(=O)N1CCC[C@H]1C(=O)N[C@H](C(=O)N[C@@H](CC(N)=O)C(=O)N[C@H](C(=O)NCC(=O)N[C@@H](CO)C(=O)N[C@@H](CC(N)=O)C(=O)N[C@H](C(=O)N[C@@H](Cc1ccc(O)cc1)C(N)=O)[C@@H](C)O)C(C)C)[C@@H](C)O [Pramlintide, ^25,28,29Pro-h-amylin], the “Body Weight: Change at Week 4, Median” value ([1]; 30 μg QID subcutaneous) is reported as -0.45 kg, the “Body Weight: Change at Week 4, Median” value ([1]; 60 μg QID subcutaneous) is reported as -0.45 kg and the “Body Weight: Change at Week 4, Median” value ([1]; 60 μg TID subcutaneous) is reported as -1.05 kg.

For rat amylin, the “ED50 derived from the logistic fit (plasma tritium AUC over 30 minutes)” value ([2]; non-fasted Harlan Sprague Dawley rats, subcutaneous 1 minute before gavage) was 0.35 μg and the “Absorption of the label (plasma tritium)” value ([2]; subcutaneous injection, 0.1-100 μg) was “dose-dependently slowed and/or delayed the absorption of the label”.

B1: ^2,7Cyclo-[^2Asp, ^7Lys]-h-Amylin (peptide)
peptide: KDNTATKATQRLANFLVHSSNNFGAILSSTNVGSNTY
modifications: lactam 2-7; ends not checked
With B1 the IC50 [3] was 0.31 nM.
